The text below walks through data of PubChem BioAssay AID1159559 (GlaxoSmithKline (GSK), 2015).

The test deals with T. cruzi Tulahuen in NIH-3T3, beta-gal fluorescence, 4 d. Briefly: T. cruzi intracellular growth inhibition, cell-based (AID 1159559).

The source made the active and inactive calls.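 The calls were made as follows: active = compounds whose IC50 against parasite growth in infected mouse cells is below 50000 nM; inactive = the rest.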 Some results are limits rather than exact numbers.

In the case of `O=C(CCCNC(=O)c1ccc(Cl)cc1)Nc1nc(-c2ccccn2)cs1`, the IC50 – broadly, the concentration that inhibits the measured activity by half – was 6.3 µM.

Turning to `N#Cc1c(Oc2cccc(Cl)c2)cccc1[N+](=O)[O-]`, the IC50 is 0.32 µM.

Consider `COc1cccc(CN(C)Cc2nc(N)c3c(C)c(C)sc3n2)c1`, for which the IC50 was 6.3 µM.

For the compound `CC(C)Oc1cccc(N2CCC(C(=O)N3CCCN(C(C)C)CC3)CC2)c1`, the IC50 was 1.3 µM.

Consider `CS(=O)(=O)NC1CCC(Oc2cc3cnccc3cc2-c2ccsc2)CC1` (configuration not stated), for which the IC50 is 0.13 µM.

For the compound `O=C(Nc1ccccc1)Nc1nc(-c2ccccn2)cs1`, the IC50 was 0.63 µM.

On to `CN(C)CCOc1ccc(N2CCN(S(=O)(=O)c3ccc(Cl)cc3)CC2)cc1`, for which the IC50 was 0.63 µM.

Consider `Cc1c(C#N)c([N+](=O)[O-])nn1Cc1cccc(Cl)c1Cl`, for which the IC50 was 0.2 µM.

`O=C(c1cccc(Cl)c1Cl)N1CCn2c1nc(-c1ccncc1)cc2=O`: the IC50 was 0.16 µM.

`Cc1[nH]n2c(=O)c3c(nc2c1-c1ccc(F)cc1)CCCC3`: the IC50 was 1.6 µM.

For the compound `Cc1ccc(C)c(CN2C(=O)NC3(CCc4ccccc43)C2=O)c1` (configuration not stated), the IC50 is 25 µM.

In the case of `O=[N+]([O-])c1ccc(-c2nnn(-c3ccc(Cl)cc3)n2)o1`, the IC50 was 0.25 µM.

As to `CC(=O)Nc1cccc(Nc2ncnc3nc[nH]c23)c1`, the IC50 was > 50 µM (inactive).

With `Cc1cc(C)cc(NS(=O)(=O)c2cc(-c3cc(C)[nH]n3)ccc2C)c1`, the IC50 was 1 µM.

For the compound `CN1CCC(N(C)c2nccc(N3CCN(C(=O)c4cccc(-c5cccnc5)c4)CC3)n2)CC1`, the IC50 was 0.32 µM.

As to `O=c1[nH]c(C=Cc2cccc(OCCOc3ccccc3)c2)nc(O)c1[N+](=O)[O-]`, the IC50 is 0.79 µM.

`CNC(=O)C1Cc2ccccc2N1C(=O)Cc1ccccc1` (configuration not stated): the IC50 is > 50 µM (inactive).

Turning to `O=[N+]([O-])c1ccc(-c2nnn(-c3cccnc3)n2)o1`, the 50% inhibitory concentration (IC50) is 0.25 µM.

On to `Cc1[nH]n2c(=O)c3c(nc2c1-c1ccc(Br)cc1)CCCC3`, for which the 50% inhibitory concentration (IC50) was 1 µM.

On to `CC(C)Nc1nc(Cl)nc2ccccc12`, for which the IC50 was 4 µM.

For `Cc1c(C(C)NC(=O)Nc2cccc(Cl)c2)sc2ncnn12` (configuration not stated), the IC50 is 0.13 µM.

Consider `Cc1cc(Nc2ccc(C#N)c(Cl)c2C)n[nH]1`, for which the IC50 is 25 µM.

Regarding `CN(C)CCN(C)Cc1ccc(F)cc1NS(=O)(=O)c1ccc(Cl)c(Cl)c1`, the IC50 is 1.6 µM.

Turning to `COc1ccccc1C=CCN1C[C@H]2CCC[C@@H](C1)C2(O)c1cccnc1` (some centres not stated), the IC50 was 0.05 µM.

In the case of `COc1ccc(-c2cnc(NC(=O)c3cc(-c4ccccn4)n[nH]3)n2C)cc1`, the IC50 is 3.2 µM.

In the case of `COCc1cc(Nc2ccc(Cl)cc2)nc(-c2ccccn2)n1`, the IC50 is 1.6 µM.

Regarding `Cn1c(CC(=O)NNC(=O)c2ccc3ccccc3n2)nc2ccccc21`, the IC50 is 3.2 µM.

With `O=C(c1ccc(Cl)cc1)c1ccc(OC(=O)N2CCOCC2)cc1`, the IC50 is 13 µM.

Regarding `Cn1ccnc1-c1nc(NCc2ccccc2Cl)cc(C2CC2)n1`, the IC50 is 0.63 µM.

For `CN(Cc1cc2ccccc2s1)c1ncc2c(N)nc(N)nc2n1`, the IC50 was 2 µM.

Regarding `COc1ccc(S(=O)(=O)Nc2ccccc2OC)cc1NC(=O)CCCc1c[nH]c2ccccc12`, the IC50 is 1.6 µM.

For `CC(C)(C)CC(=O)NCc1noc(COc2ccccc2)n1`, the IC50 is 2.5 µM.

For `CCCCCNC(=O)c1c[nH]c2ccc(S(=O)(=O)N(C)c3ccc(OCC)cc3)cc2c1=O`, the IC50 was 32 µM.

Take `CC(Cn1ccnc1)NC(=O)COc1ccc(Cl)c(Cl)c1` (configuration not stated): the IC50 is 0.2 µM.

Take `Clc1ccc(Sc2cnccc2N2CCOCC2)cc1`: the IC50 is 0.13 µM.

As for `CC1(C)CCC(=Cc2ccc(Cl)cc2)CC1(O)Cn1ccnc1` (configuration not stated), the IC50 was 0.0063 µM.

Consider `Cc1[nH]nc2c1C(c1ccc(OCc3ccccc3F)cc1)SCC(=O)N2` (configuration not stated), for which the IC50 was 2 µM.

`CCc1cc(C(=O)Nc2nccn2-c2ccccc2)cs1`: the IC50 was 3.2 µM.

`COc1ccc2ncc(=O)n(CCN3CCOC(CNCc4ccc(C(F)(F)F)cc4F)C3)c2n1` (configuration not stated): the 50% inhibitory concentration (IC50) was 0.4 µM.

On to `Cc1nc(C(=O)Nc2ccc3c(c2)OCO3)nn1-c1ccc(F)cc1`, for which the IC50 was 3.2 µM.

In the case of `C[C@@H](Oc1cc(-n2cnc3ccc(O[C@H]4CCNC4)cc32)sc1C(N)=O)c1ccccc1Cl`, the IC50 was 3.2 µM.

As to `Cc1ncsc1CNc1cnc(-c2ccc3c(c2)OCCO3)c(-c2cnn(C)c2)c1`, the IC50 was 13 µM.

As to `CN(C)CCN(C)Cc1ccc(Cl)cc1NS(=O)(=O)c1ccc(Cl)c(Cl)c1`, the IC50 was 1 µM.

Take `Cc1ccccc1NS(=O)(=O)c1ccc2[nH]cc(C(=O)NC3CCCC(C)C3C)c(=O)c2c1` (configuration not stated): the IC50 was 5 µM.

As to `CN(CC1CCCO1)S(=O)(=O)c1ccc(C(=O)Nc2nc(-c3ccccn3)cs2)cc1` (configuration not stated), the IC50 is 1.6 µM.

With `O=C(NCCc1nc(-c2ccc(F)c(F)c2)n[nH]1)C1CCCCC1`, the IC50 is 2 µM.

Consider `CCN(CC)c1nc(Nc2ccncc2)nc2ccccc12`, for which the IC50 is 0.13 µM.

For the compound `CCn1nccc1CN(C)C(=O)C=Cc1ccc(Cl)cc1`, the IC50 was 0.2 µM.

`COc1ccc([N+](=O)[O-])cc1NC(=O)c1cc(Cl)ccc1O`: the IC50 was 32 µM.

In the case of `Cc1ccc2sc(NC(=O)Cn3cnc([N+](=O)[O-])n3)nc2c1`, the IC50 was 1.3 µM.

As for `COc1ccc(C)cc1-c1csc(NC(=O)C(C)n2ccnc2)n1` (configuration not stated), the IC50 was 0.063 µM.

`COc1ccc(OC)c(S(=O)(=O)N(Cc2c(F)cccc2F)[C@@H]2CCN(C#N)C2)c1`: the IC50 was 6.3 µM.

Turning to `CCCc1cc(N)nc(-c2cc(CCC)cc(N)n2)c1`, the IC50 was 2 µM.

With `CN(C)S(=O)(=O)c1cccc(CSc2nnc(-c3ccc4c(c3)OCO4)o2)c1`, the IC50 was 0.5 µM.

Regarding `O=C(NCC(c1cccnc1)N1CCc2ccccc2C1)C(=O)Nc1cccc(Cl)c1` (configuration not stated), the IC50 is 0.2 µM.

As to `O=C1COC(c2ccccc2)(c2ccccc2)CN1C1CCN(Cc2ccc(-n3ccnc3)cc2)CC1`, the IC50 is 1.6 µM.

On to `COc1cc(OC)cc(C(NS(=O)(=O)c2ccc(Cl)c(C(F)(F)F)c2)c2nccn2C)c1` (configuration not stated), for which the 50% inhibitory concentration (IC50) was 4 µM.

Take `COc1ccc(-c2cnc(C)o2)cc1S(=O)(=O)Nc1ccc(C)cc1C`: the IC50 is 2.5 µM.

As for `C=CCn1nc([N+](=O)[O-])nc1Oc1ccc(Cl)cc1Cl`, the IC50 was 0.25 µM.

In the case of `O=C(NCCc1ccn(-c2ccccc2)n1)C1CCCCC1`, the IC50 is 1.3 µM.

Turning to `Oc1c(-c2n[nH]c(Cc3ccc(F)cc3)n2)ncc2cccnc12`, the IC50 was 0.16 µM.

Take `COc1cccc(C(=O)[C@H]2C[C@@H]2CN(Cc2cccnc2)Cc2cccnc2)c1`: the IC50 was 0.1 µM.

For `CNC(=O)C1Cc2ccccc2N1C(=O)COc1cccc(OC)c1` (configuration not stated), the IC50 was > 50 µM (inactive).

Regarding `O=C(Cc1ccccc1)Nc1ccccc1C(=O)Nc1nccs1`, the IC50 is 40 µM.

For `CN(C)c1ncc(-c2cncn2CCOc2ccc(Cl)cc2)cn1`, the IC50 is 0.2 µM.

On to `O=C(CSc1ccc(-c2ccccn2)nn1)Nc1ccc(Cl)cc1`, for which the concentration for half-maximal inhibition (IC50) is 2.5 µM.

As to `Cc1ccc(S(=O)(=O)Nc2ccc(CN3CCN(C(=O)c4cccc(C#N)c4)CC3)cc2)cc1`, the IC50 is 0.5 µM.

As to `OC1CCC(Nc2nccc(-c3sc(C4CCOCC4)nc3-c3ccc(F)c(F)c3)n2)CC1` (configuration not stated), the IC50 is 0.32 µM.

In the case of `O=C(Nc1cccc(F)c1)N1CCC(Oc2cccc(-c3cccnc3)c2)CC1`, the IC50 is 0.63 µM.

In the case of `CCOc1ccc(NC(=O)c2ccc(NC(=O)NC3CCCCC3)cc2)cc1`, the IC50 was 32 µM.

In the case of `CCOc1ccc(Nc2ccc(S(=O)(=O)N3CCN(C)CC3)cc2[N+](=O)[O-])cc1OCC`, the half-maximal inhibitory concentration (IC50) was 7.9 µM.

Consider `CCN(CC)S(=O)(=O)c1ccc(Cn2nc(C(=O)Nc3ccncn3)c3ccccc32)cc1`, for which the IC50 was 0.32 µM.

As to `Cc1cc(NC(=O)C2CC2)ccc1OC1CCN(Cc2ccco2)CC1`, the IC50 was 16 µM.

With `CCCCN(C(=O)c1ccc(NC(=O)C(C)C)cc1)c1ccccc1`, the IC50 is 20 µM.

For the compound `COc1ccc(NC(=O)c2ccc(NC(=O)CN(c3ccccc3C)S(C)(=O)=O)cc2)cc1`, the IC50 was 32 µM.

With `O=[N+]([O-])c1ccc(C2=CC(c3ccccc3)=NCCN2)cc1`, the IC50 is 0.5 µM.

For the compound `O=C(NCCc1csc(-c2cccc(F)c2)n1)c1ccco1`, the IC50 is 1.6 µM.

With `CNc1nc(C)nc(N2CCc3cc(C(=O)NCc4ccc(-c5ccn[nH]5)cc4Cl)ccc32)n1`, the IC50 was > 50 µM (inactive).

Regarding `CNc1cncc(C2CCCN2C(=O)Cc2ccc3ccccc3c2)n1` (configuration not stated), the IC50 was 0.079 µM.

In the case of `CNC(=O)C1Cc2ccccc2N1C(=O)Cc1ccc(F)cc1` (configuration not stated), the IC50 was > 50 µM (inactive).

Regarding `O=c1ccc2ccc(F)c3c2n1C[C@H]3CN1CCN(CC(O)c2cc3c(cn2)OCS3)CC1` (some centres not stated), the IC50 was 0.63 µM.

For `Cn1nc([N+](=O)[O-])nc1N1CCCCC1`, the IC50 was 1.3 µM.

As for `O=C(NCc1nnc2n1CCCCC2)c1csc(-c2ccccc2)n1`, the IC50 is 2.5 µM.

Consider `Cc1cccnc1CN1CCN(CCCOc2ccc(-c3ccc(C(N)=O)cc3)cc2)CC1`, for which the IC50 is 0.63 µM.

For the compound `O=C(Nc1nc(-c2ccccn2)cs1)C1CCc2ccccc2C1` (configuration not stated), the IC50 was 2 µM.

As for `COc1ccc(Cc2nc(-c3ncc4cccnc4c3O)n[nH]2)cc1OC`, the IC50 was 1.3 µM.

`N#Cc1cc(-c2ccnc(Nc3cccc(CN4CCOCC4)c3)n2)ccc1NCCN`: the IC50 is 7.9 µM.

As for `O=C(Nc1nc(-c2ccc(S(=O)(=O)N3CCOCC3)cc2)cs1)c1ccc([N+](=O)[O-])cc1`, the IC50 is 1 µM.

Turning to `Cc1ccccc1CNC(=O)CN(Cc1ccccn1)Cc1ccccn1`, the IC50 was 5 µM.

With `COc1cnc2ccc(=O)n(CCN3CCC(NC(=O)Cc4ccc(Cl)c(Cl)c4)CC3)c2c1`, the IC50 is 0.32 µM.

In the case of `Cc1ccccc1NS(=O)(=O)c1ccc2[nH]cc(C(=O)NC3CCCC3)c(=O)c2c1`, the IC50 was 25 µM.

For `O=C(NCC(c1cccs1)N1CCOCC1)c1ccc([N+](=O)[O-])o1` (configuration not stated), the IC50 is 3.2 µM.

As for `c1ccc(-c2nc(NCc3ccco3)c3ccccc3n2)nc1`, the IC50 was 6.3 µM.

Regarding `CC(Cn1ccnc1)NC(=O)C=Cc1ccc(Cl)cc1` (configuration not stated), the IC50 was 0.4 µM.

Consider `NCC(Cc1ccccc1)NC(=O)c1cnc(-c2c[nH]c3ncccc23)s1` (configuration not stated), for which the IC50 is 2 µM.

Take `Cc1cc(NC(=O)c2ccc([N+](=O)[O-])s2)ccc1Br`: the IC50 was 0.25 µM.

On to `CC(C)COC(=O)Nc1ccc(N2CCC(CNS(=O)(=O)c3ccccc3)CC2)c(F)c1`, for which the IC50 is 10 µM.
